Like-named read-outs stand apart in the source and are kept apart here.

Details of data set [1]: method as in PMID 25994066. The conditions noted are these: DPPH method; read-out: Radical Scavenging Activity (EC50); cited from earlier work.
A short description of data set [2]: Radical scavenging activity, DPPH method. As to conditions: MeOH, 30 min, r.t., mean ± SD of 3 independent experiments. The format is biochemical. The text has this: Commercial ferulic acid (FA) and all the newly synthesized compounds 1a–e were studied for their radical scavenging activity, following the protocol previously reported. The activity of each compound is expressed as EC50 and is related to its interaction with the free stable radical 2,2-diphenyl-1-picrylhydrazyl (DPPH•).
For the physicochemical and biological studies, analytical grade reagents and solvents were supplied by Sigma-Aldrich (St. Louis, MO, USA), Fluka (Buchs, Switzerland) and Acros (Geel, Belgium). They were used as received without any purification. The antioxidant activity assay was performed in a quartz cell of 1 cm path length with a Perkin-Elmer Lambda 35 UV–Vis spectrophotometer equipped with a temperature programmer PTP1+1 Peltier System (T = 25.0 ± 0.1 °C).
Compounds were evaluated for their radical scavenging activity by the Blois method using DPPH (2,2-diphenyl-1-picrylhydrazyl), a stable free-radical. It absorbs in methanol solution at 517–520 nm and it is a scavenger for other radicals converting itself in the reduced form DPPHH. The assay consists of preparing solutions of increasing concentration of each compound starting from a stock solution (2–3 × 10^−4 M), adding to them 2.5 mL DPPH (0.002% in MeOH, 50–100 µM) and the necessary volume of MeOH to reach the final volume 3.5 mL for each sample. The control sample was made up of DPPH and MeOH. Solutions were protected from light at r.t. for 30 min and then absorbance was measured at 517 nm with a Perkin Elmer Lambda 35 UV–Vis spectrophotometer, using methanolic solution as the blank in the other cell. All the studied compounds have good solubility in MeOH, so their solutions could be prepared. The assay was repeated three times for all compounds and the antioxidant activity, expressed as EC50, was calculated by Equation (1). %AA = ((ADPPH − Asample)/ADPPH) × 100,(1)

For data set [3], the target named is T1, Aβ1–42 peptide (Homo sapiens, UniProt P05067). The data set can be described thus: Inhibition of self-mediated Aβ1–42 aggregation, Thioflavin T fluorescence assay. As to conditions: read-out: Inhibition of Aβ1–42 Aggregation (%) Self-Aβ Aggr. Also noted: Amyloid-β peptide (1–42) was purchased from GeneCust; purchased GeneCust. The data set is classed as biochemical. Here is the method:
(§1) The studied compounds (1a–e) were tested in vitro to evaluate their activity as inhibitors of Aβ1-42 peptide aggregation, through the Thioflavin T (ThT) fluorescence assay. This method is based on the strong ability of the dye ThT to bind β-amyloid fibrils and oligomers through ionic and hydrophobic interactions, while its interaction with β-amyloid monomers is extremely weak. The intercalation of compounds in the β-sheet structure of amyloid protein may prevent fibrils aggregation and ThT binding, and it is evaluated by fluorimetry. The fluorescence emission measurements were performed after overnight incubation of the self-mediated or Cu^2+-induced Aβ fibril aggregates with the studied compounds.
(§2) The inhibition of β-amyloid (Aβ) aggregation was studied through the Th-T fluorescence assay, which was performed using a Varian Cary Eclipse fluorimeter at the following wavelengths: excitation (446 nm) and emission (485 nm). Amyloid-β peptide (1–42) was purchased from GeneCust as lyophilized powder stored at −20 °C.
(§3) The method used is based on thioflavin T (ThT) fluorescence emission, which depends on the interaction of this dye with Aβ fibrils. The assay is performed with the Aβ1–42 peptide sample, which was previously prepared by solubilization of its lyophilized powder in 1,1,1,3,3,3–hexafluoro-2-propanol (HFIP), an organic solvent useful to solubilize and monomerize the β-sheets protein aggregates. After 24 h, the solution was divided into Eppendorf tubes kept in ice, and then, HFIP was left to evaporate overnight (T = 25 °C). The resultant films were stored in the freezer. […] Compounds were dissolved in MeOH (1 mg/mL) and diluted with phosphate buffer to reach a ligand stock solution of 480 μM. Two different types of experiments were prepared in a final volume of 60 μL: control ligand assays (Aβ1–42 aggregation in the absence of inhibitor) and ligand assays (effect of ligand on Aβ1–42 aggregation). For each experiment, a blank sample without Aβ1–42 was used to monitor the effect of the compounds in fluorescence. To study the inhibition of aggregation in the presence of Cu^2+, which is known to promote it, an intermediate stock solution of CuCl2 in phosphate buffer (240 µM) was prepared. Then, it was aliquoted to obtain a final concentration of 40 µM in the samples. All samples were incubated in a water bath for 24 h at 37 °C. Then, 180 µL of ThT (5 µM) in glycine-NaOH buffer (50 mM, pH = 8.5) is added to each solution and 200 µL of it is placed in a 96-well plate (BD Falcon) to be read with the fluorimeter. After 5 min of incubation with ThT, fluorescence was measured at 446 nm (ʎ excitation) and 485 nm (ʎ emission).

Data set [4] has as its target T1, Aβ1–42 peptide. The data set can be described thus: Inhibition of Cu^2+-induced Aβ1–42 aggregation, Thioflavin T fluorescence assay. The format is biochemical. Also noted: Amyloid-β peptide (1–42) was purchased from GeneCust; purchased GeneCust. The conditions noted are these: compounds 80 μM, with copper 40 μM; ThT fluorescence; mean of two independent measurements in duplicate; read-out: Inhibition of Aβ1–42 Aggregation (%) Cu-Induced Aβ Aggr. Here is the method: as §1, §2, §3

The nature of data set [5]: Fe^3+ complexation, potentiometric / spectrophotometric titration. The format is physicochemical. The text has this:
(§4) The chelating ability of FA and of selected compounds 1a and 1d was studied by using the same experimental techniques (potentiometry, UV–Vis spectrophotometry) and experimental medium used for the titration of the ligand alone (20% w/w DMSO/water).
(§5) Alterations in the deprotonation profiles of the ligand titration curves due to the presence of the metal ions are evident in Figure 2, since the curves for the M/L systems appear well below that of FA for a > −1 (M = Fe) or a > 0 (M = Cu). This evidence supports the formation of metal complexes with the deprotonated (L^−) and mono-protonated (HL) forms of the ligand, whose stability order (Fe > Cu) follows the expected trend. Equilibrium models obtained from the fitting analysis of the potentiometric curves (M = Fe, Cu) and the UV–Vis spectral data (M = Fe, Cu) are reported in Table 2.
(§6) Both compounds 1a and 1d have similar chelating capacities towards iron and copper, which are also analogous to those of FA.
(§7) As concerns the metal chelation studies, potassium hydrogen phthalate (C8H5KO4, p.a.) was acquired from BDH, whereas dimethylsulfoxide (DMSO, dried, p.a.) and potassium chloride (KCl, p.a.) were supplied by Sigma-Aldrich. Aqueous solutions of metal ions were prepared starting from 1000 ppm standards (Titrisol, Sigma-Aldrich), to obtain solutions FeCl3 0.018 M and CuCl2 0.015 M. The metal content of solutions was evaluated by atomic absorption. Iron stock solution was prepared with an excess of acid chloride to avoid hydrolysis and its concentration in HCl was determined by the usual standard-addition method using 0.1M HCl (Titrisol). The 0.1M HCl solution, used in calibration of the glass electrode and in spectrophotometric titrations, was prepared from a Titrisol ampoule. The titrant was prepared from carbonate free commercial concentrate (Titrisol, KOH 0.1 M ampoules). The KOH solution was standardized by titration with a solution of potassium hydrogen phthalate using Gran’s method and it was rejected when the percentage of carbonate was greater than 0.5% of the total amount of base. The potentiometric studies were performed with an automated potentiometric apparatus controlled by PASAT program and containing a Crison micropH 2002 millivoltmeter, a Crison microBu 2031 burette and a Haake thermostatic bath (T = 25.0 ± 0.1 °C). The spectrophotometric titrations were carried out with a Perkin-Elmer Lambda 35 spectrophotometer.
(§8) Both glass and Ag/AgCl reference electrodes were previously conditioned in different DMSO/H2O mixtures of increasing DMSO % concentration and the response of the glass electrode was evaluated by strong acid–strong base (HCl/KOH) calibrations with the determination of the Nernst parameters by Gran’s method. […] The spectrophotometric measurements were carried out in a 250–450 nm wavelength range at pH ca. 2.5–11.8. Under the stated experimental conditions, the pKw value (14.27) was determined and subsequently used in the computations. The stepwise protonation constants of the ligands, Ki = [HiL]/[Hi-1L][H], and the overall metal complex stability constants, β (MmHhLl) = [MmHhLl]/[M]^m[H]^h[L]^l, were calculated by fitting the pH-potentiometric and spectrophotometric data with, respectively, the Hyperquad 2008 [41] and Psequad programs. The metal hydrolysis model was determined under the defined experimental conditions (I = 0.1 M KCl, 20% w/w DMSO/H2O, T = 25.0 ± 0.1 °C) and the following values of stability constants were included in the fitting of experimental data towards the equilibrium models related to the Fe^3+/L and Cu^2+/L systems: log β (FeH-2) = −6.78, log β (FeH-3) = −10.78; log β (Cu2H-2) = −9.94. The species distribution curves were obtained with the Hyss program.

Data set [6] in a line: Cu^2+ complexation, potentiometric / spectrophotometric titration. The data set is classed as physicochemical.
Excerpt: as §4, §5, §6, §7, §8

Details of data set [7]: method as in doi:10.1039/C7NJ00661F, doi:10.1016/j.tca.2004.06.016, doi:10.1021/je101075q. As to conditions: aqueous medium and/or different ionic strength; cited from earlier work.
Data set [8] has as its target T1, Aβ1–42 peptide. The conditions noted are these: cited from earlier work.
The mark [9] stands for this setting: compounds 80 μM, without copper, ThT fluorescence, mean of two independent measurements in duplicate.
Where [10] appears, read: T = 25.0 ± 0.1 °C, I = 0.1 M KCl, 20% w/w DMSO/water, pH-potentiometric (FA), UV–Vis (1a, 1d).
Where [11] appears, read: T = 25.0 ± 0.1 °C, I = 0.1 M KCl, 20% w/w DMSO/water, pH-potentiometric data.
The mark [12] stands for this setting: pH 7.4, CL/CM = 10, CM = 10^−6 M.

T1 sequence (P05067 672-713): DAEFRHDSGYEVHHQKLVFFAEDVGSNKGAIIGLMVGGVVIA

In the case of `O=C1O[C@H]([C@@H](O)CO)C(O)=C1O` [Ascorbic acid], the EC50 in [1] was 25 ± 1 µM.

In the case of `COc1cccc(CONC(=O)/C=C/c2ccc(O)c(OC)c2)c1` [Compound 1b, (E)-3-(4-hydroxy-3-methoxyphenyl)-N-((3-methoxybenzyl)oxy)acrylamide], the melting point lay within 63 to 65 °C. Moreover, in data set [2], a half-maximal response (EC50) required 40 ± 2 µM. For the same compound, the inhibition at 80 µM in data set [3] (setting [9]) worked out at 52.8%. The inhibition at 80 µM in data set [4] was found to be 69.5%.

The compound `COc1cc(/C=C/C(=O)O)ccc1O` [FA, (E)-4-hydroxy-3-methoxy cinnamic acid, reference compound] registered an EC50 in data set [2] of 36 ± 2 µM. Further, the “log β (FemHhLl), species (1–22)” value in data set [5] (T = 25.0 ± 0.1 °C, I = 0.1 M KCl, 20% w/w DMSO/water) is listed as 7.81(8). In addition, in [5] (setting [10]), the “log β (FemHhLl), species (101)” value is reported as 12.15(6) and the “log β (FemHhLl), species (102)” value was 20.31(6). The “log β (FemHhLl), species (103)” value in [5] (setting [11]) is on record as 26.70(8). Also, the “pM (Fe^3+), pM = −log [M]” value in [5] (setting [12]) was 17.4. Further, in [5] (pH ca. 2, species distribution), the “free iron in the Fe^3+/L system” value was “ca. 90%”. Moreover, in [6] (setting [10]), the “log β (CumHhLl), species (1–12)” value was 1.90(8) and the “log β (CumHhLl), species (101)” value is 6.52(8). For the same compound, in [6] (T = 25.0 ± 0.1 °C, I = 0.1 M KCl, 20% w/w DMSO/water, pH-potentiometric (FA), UV–Vis (1d)), the “log β (CumHhLl), species (102)” value is given as 11.14(6). In addition, the “log β (CumHhLl), species (111)” value in data set [6] (setting [11]) is recorded as 13.30(4). Moreover, the “pM (Cu^2+), pM = −log [M]” value in data set [6] (setting [12]) was determined as 6.2. For the same compound, in data set [7], the “log K1 previously reported” value is listed as 8.77–8.94 and the “log K2 previously reported” value is 4.46–4.56.

Regarding `COc1cc(/C=C/C(=O)NOCc2ccc(Cl)cc2Cl)ccc1O` [Compound 1e, (E)-N-((2,4-dichlorobenzyl)oxy)-3-(4-hydroxy-3-methoxyphenyl)acrylamide], the melting point was 164.3 to 166.5 °C. Also, in data set [2], the response was half-maximal at 32 ± 3 µM (EC50). In addition, the inhibition at 80 µM in data set [3] (setting [9]) stood at 28.3%. Moreover, in [4], the inhibition at 80 µM is 77%.

For the compound `COc1cc(/C=C/C(=O)NOCc2ccccc2C(F)(F)F)ccc1O` [Compound 1c, (E)-3-(4-hydroxy-3-methoxyphenyl)-N-((2-(trifluoromethyl)benzyl)oxy)acrylamide], the melting point lay in the range of 76 to 77 °C. This compound also showed an EC50 in data set [2] of 34 ± 1 µM. Besides, the inhibition at 80 µM in data set [3] (setting [9]) is 51%. Moreover, in [4], the inhibition at 80 µM came out at 68.8%.

Turning to `Nc1c2c(nc3ccccc13)CCCC2` [Tacrine, reference compound], in [8], the “Inhibition of Aβ1–42 Aggregation (%) Self-Aβ Aggr.” value was 22.8%. The inhibition at 80 µM in data set [3] was 21.5%.

Values taken from PMC8512147, “Multifunctional Small Molecules as Potential Anti-Alzheimer’s Disease Agents” (Molecules, 2021).
